# Measurements: patent US20240410831A1, “Multi-Mode Zinc-Selective Emission-Ratiometric Fluorescent Probes for Biological Application” (Georgia Tech Research Corporation, priority 2023, published 2024)
# Experiments:
# [1] = tested on: live mouse fibroblast 3T3 cells; assay: Ratiometric imaging of labile Zn(II) by laser confocal fluorescence microscopy (excitation at 405 nm); format: cell-based; settings: for average fluorescence ratio R (BP2/BP1): confocal 405 nm
# Procedure: With reference to FIG. 7B, ratiometric imaging of labile Zn(II) pools in live mouse fibroblast 3T3 cells with Formula I and/or Formula IA (e.g., for example probe 8) by TPEM (excitation at 405 nm). (A) of FIG. 7B Left: Intensities acquired with 520 nm-600 nm (BP2) and 440 nm-495 nm (BP1) bandpass filters respectively. Right: Intensity ratio imagines with R=BP2/BP1. (B) of FIG. 7B Left: Ratio images (BP2/BP1) before (prior to t=5 min) and after the addition of 50 μM ZnSO4 and 5.0 μM pyrithione. Addition of TPEN at t=15 min resulted the reversal of the initial fluorescence ratio change. (C) of FIG. 7B: Mean fluorescence ratio of the cytoplasmic region averaged over 10 cells (P values calculated for n=10 using a two-tailed test). (D) of FIG. 7B: Time course of the average ratio change for mean fluorescence ratio in the cytosol averaged over 10 cells.
# To investigate whether Formula I, Formula II, and/or a derivative thereof (e.g., for example probe 8) may also be employed with one-photon excitation at 405 nm, the imagine experiment was repeated with a conventional confocal fluorescence microscope equipped with a 405 nm laser as the excitation source. […] The averaged fluorescence ratio indicated a uniform fractional saturation with an average ratio of R=0.57±0.04. […] The difference in fluorescence ratios is likely due to differences in the absorption cross sections for linear vs. non-linear excitation. In principle, the ratio response could be further tuned by adjusting the sensitivity of the bandpass detectors.
# In various embodiments, mouse fibroblast (3T3) cells were grown on poly-L-lysine treated glass bottom culture dishes (MatTek) to 90% confluency in DMEM growth media supplemented with 10% bovine calf serum, and 1% penicillin-streptomycin. Before imaging, the media was replaced with pre-warmed colorless serum-free DMEM (1% penicillin-streptomycin, and 1% sodium pyruvate) containing 1.0 μM of probe 8. The cells were incubated at 37° C. under an atmosphere of humidified air containing 5% CO2 for 15 mins. The incubation solution was replaced with prewarmed colorless serum free DMEM. Images were acquired at 37° C., 8% humidity, and 5% CO2 using a Zeiss LSM NLO 710 microscope equipped with a femtosecond pulsed Ti:sapphire laser and a blue 405 nm laser. Scanning fluorescence micrographs were acquired with excitation at 405 nm or 750 nm and the emission was simultaneously collected with bandpass ranges of 495-440 nm (BP1) and 600-520 nm (BP2). Image J was used to evaluate the change in fluorescence emission ratio over time as previously described. The emission ratio for each region of interest was averaged at each time point.
# TPEN solid was fully dissolved in anhydrous DMSO to a concentration of 3.0 mM. […]
# [2] = Fluorescence quantum yield measurement; format: physicochemical; settings: liposome solution, pH 7.0 PIPES
# Procedure: The quantum yields of the free Formula I, Formula II, and/or a derivative thereof (e.g., for example probe 8) was determined using quinine sulfate as a reference (Df=0.546 in 1.0 N H2SO4). The quantum yield was derived from a 5-point measurement in Chelex®-treated PIPES buffer containing 100 μM of 4:1 DMPC:DMPG liposomes (pH 7.0, 10 mM PIPES, 0.1 M KCl, 25° C.). For the free compound 1 (e.g., for example probe 8 in FIG. 4H), the solutions were supplemented with 20 μM of EDTA (from a 3.0 mM stock solution in DI H2O). The quantum yield of the probe 8-Zn(II) complex was independently determined under the same conditions in the presence of 1.1 molar equivalent of Zn(OTf)2. The quantum yield of the Zn(II) complex was confirmed with fluorescence quantum yield ratio. The fluorescence quantum yields were calculated as an average of two independent measurements.
compound,measurement,setting,value
COc1ccc2c(c1)C(C)(C)c1nc(-c3cccc(CN(Cc4ncccn4)Cc4ncccn4)n3)sc1-2 [probe 8],cellular uptake,"[1]; 3T3 cells, confocal",readily internalized
same,average fluorescence ratio R (BP2/BP1),[1]; after TPEN,0.56±0.04
same,average fluorescence ratio R (BP2/BP1),[1]; after Zn(II) and ionophore pyrithione,1.04±0.12
same,average fluorescence ratio R (BP2/BP1),[1]; basal,0.57±0.04
same,quantum yield,[2]; Zn(II)-probe complex,78%
same,quantum yield,[2]; free probe,72%
